Reference: PMC8248988, “A signal capture and proofreading mechanism for the KDEL-receptor explains selectivity and dynamic range in ER retrieval” (eLife, 2021)

Target: T1, human KDELR1 D50N/N54K/E117Q/W120A (Homo sapiens, UniProt P24390, D50N/E117Q/N54K/W120A)
T1 construct: expressed in transfected cells; host or cells: COS-7
Test: ER retrieval assay, KDELR1 D50N/N54K/E117Q/W120A-GFP
Format: cell-based
Conditions: COS-7 cells
Description: To create KDELR1-GFP and KDELR2-GFP, the reading frames for Homo sapiens KDELR1 (Uniprot: P24390) and KDELR2 (Uniprot: P33947) were cloned into the pEF5/FRT low level mammalian expression vector with a C-terminal 20 amino acid linker made up of 5 copies of Gly-Ser-Ser-Ser followed by GFP. Specific point mutations were introduced using the Quickchange protocol (Stratagene) and are described in the key resources table and figures. To create the mScarlet-KDEL^sec ligand construct, mScarlet with an N-terminal hGH signal peptide and the 16 C-terminal residues of human BiP at its C-terminus, containing the KDEL signal, was cloned into the pcDNA3.1 vector. […] The Golgi marker protein TGN46 was detected by antibody (sheep anti-TGN46 AHP500G; AbD Serotec) and an Alexa 647 conjugated secondary anti-sheep secondary (A-21448, Invitrogen). In Figure 1d and e, endogenous KDELR was detected by antibody (mouse anti-KDELR ADI-VAA-PT048; Enzo Life Sciences) and Alexa 488 conjugated anti-mouse secondary antibody (A-21202, Invitrogen). For retrieval assays in other figures, KDELR-GFP fusion proteins were directly detected by fluorescence. The mScarlet-xDEL fusion proteins were directly detected by fluorescence. […] The fraction of KDEL receptor in the Golgi apparatus was calculated by dividing the Golgi signal by the total cell signal. […]

T1 sequence (P24390 whole entry D50N/N54K/E117Q/W120A): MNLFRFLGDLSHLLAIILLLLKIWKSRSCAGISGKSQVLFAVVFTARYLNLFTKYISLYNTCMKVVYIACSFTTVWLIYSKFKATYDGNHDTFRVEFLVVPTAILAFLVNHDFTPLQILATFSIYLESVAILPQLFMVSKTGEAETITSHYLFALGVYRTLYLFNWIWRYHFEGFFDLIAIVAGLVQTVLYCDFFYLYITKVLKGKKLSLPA

ADEL [pcDNA3.1 hGHss-mScarlet-H. sapiens BiP639-654K651A (ADEL^SEC), secreted mScarlet fusion with human BiP C-terminus, ADEL signal]
ligand-induced receptor retrieval to the ER (in words): does not relocate from the Golgi to the ER
